Source: US8975417B2, “Pyrazolopyrrolidine derivatives and their use in the treatment of disease” (Novartis AG, priority 2013, dated 2015)

Columns and labels:
K-562 cells = test: Cell growth inhibition assay (CellTiter-Glo), K-562; type: cell-based, human; conditions: Homo sapiens, K562, read-out: K-562 TGI
Outline: (§1)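 Compounds tested as 3-fold dilution series starting at 10 μM (DMSO 0.1% final); viability read by cellular ATP (CTG luminescence) at 37° C. Signal corrected for no-cell background and a day-0 plate, scaled −100% to 100%; four-parameter fitting gives IC50 and TGI.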

His-Brd4(44-477) = His-Brd4(44-477) (Homo sapiens (Human), UniProt O60885); test: TR-FRET in-vitro binding assay for BRD4; conditions: biochemical
Outline: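 His-tagged BRD2(60-472), BRD3(20-477) or BRD4(44-477), 45 nM in dispensing solution, with 60 nM tetra-acetylated histone H4 peptide (AcK5/8/12/16) in dispensing solution; HEPES pH 7.5, 50 mM NaCl, 0.1% BSA, 30 °C, 35 min. Eu-anti-His6 antibody plus streptavidin-APC added for TR-FRET read-out; 8-point compound dilutions.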

THP-1 cells = test: Cell growth inhibition assay (CellTiter-Glo), THP-1; type: cell-based; conditions: Homo sapiens, read-out: THP-1 TGI
Outline: as §1

| SMILES | IC (total growth inhibition) (K-562 cells) [µM] | IC50 (His-Brd4(44-477)) [nM] | IC (total growth inhibition) (THP-1 cells) [µM] |
| --- | --- | --- | --- |
| CCc1c2c(nn1CCO)C(=O)N(c1cc(C)c3onc(C)c3c1)C2c1ccc(Cl)cc1 (stereo not drawn) [Example 80, 4-(4-chlorophenyl)-5-(3,7-dimethylbenzo[d]isoxazol-5-yl)-3-ethyl-2-(2-hydroxyethyl)-4,5-dihydropyrrolo[3,4-c]pyrazol-6(2H)-one] | > 10 | 35 | 1.03 |
| CCc1nn(C2CC2)c2c1C(c1ccc(Cl)cc1)N(c1cc(C)c3nnc(C)n3c1)C2=O (stereo not drawn) [Example 70, 4-(4-chlorophenyl)-1-cyclopropyl-5-(3,8-dimethyl-[1,2,4]triazolo[4,3-a]pyridin-6-yl)-3-ethyl-4,5-dihydropyrrolo[3,4-c]pyrazol-6(1H)-one] | > 10 | 24 | 0.0305 |
| Cc1nn(C(C)C)c2c1[C@H](c1ccc(Cl)cc1)N(c1cc(C)c(=O)n(C)c1)C2=O [Example 103, (S)-4-(4-chlorophenyl)-5-(1,5-dimethyl-6-oxo-1,6-dihydropyridin-3-yl)-1-isopropyl-3-methyl-4,5-dihydropyrrolo[3,4-c]pyrazol-6(1H)-one] | > 10 | 11000 | > 10 |
| Cc1nn(-c2cncn2C)c2c1C(c1ccc(Cl)cc1)N(c1cc(C)c(=O)n(C)c1)C2=O (stereo not drawn) [Example 83, 4-(4-chlorophenyl)-5-(1,5-dimethyl-6-oxo-1,6-dihydropyridin-3-yl)-3-methyl-1-(1-methyl-1H-imidazol-5-yl)-4,5-dihydropyrrolo[3,4-c]pyrazol-6(1H)-one] | > 10 | 91 | 0.396 |
| Cn1cc(N2C(=O)c3c(c(C(F)(F)F)nn3C3CC3)C2c2ccc(Cl)cc2)cc(Cl)c1=O (stereo not drawn) [Example 44, 5-(5-chloro-1-methyl-6-oxo-1,6-dihydropyridin-3-yl)-4-(4-chlorophenyl)-1-cyclopropyl-3-(trifluoromethyl)-4,5-dihydropyrrolo[3,4-c]pyrazol-6(1H)-one] | > 10 | 210 | 0.484 |
| COc1ncccc1-n1nc(C)c2c1C(=O)N(c1cc(C)c3nnn(C)c3n1)C2c1ccc(Cl)cc1 (stereo not drawn) [Example 109, 4-(4-chlorophenyl)-5-(3,7-dimethyl-3H-[1,2,3]triazolo[4,5-b]pyridin-5-yl)-1-(2-methoxypyridin-3-yl)-3-methyl-4,5-dihydropyrrolo[3,4-c]pyrazol-6(1H)-one] | > 10 | 17 | 0.0904 |
| Cc1nn(C[C@H](O)C(F)(F)F)c2c1[C@@H](c1ccc(Cl)cc1)N(c1cc(C)c3nnc(C)n3c1)C2=O [Example 167, (R)-4-(4-chlorophenyl)-5-(3,8-dimethyl-[1,2,4]triazolo[4,3-a]pyridin-6-yl)-3-methyl-1-((S)-3,3,3-trifluoro-2-hydroxypropyl)-4,5-dihydropyrrolo[3,4-c]pyrazol-6(1H)-one] | > 10 | 40 | 0.117 |
| Cc1cc(N2C(=O)c3nn(C4CC4)c(C)c3C2c2ccc(Cl)cc2)cn2c(C)nnc12 (stereo not drawn) [Example 93, 4-(4-chlorophenyl)-2-cyclopropyl-5-(3,8-dimethyl-[1,2,4]triazolo[4,3-a]pyridin-6-yl)-3-methyl-4,5-dihydropyrrolo[3,4-c]pyrazol-6(2H)-one] | > 10 | 27 | 0.0518 |
| COc1ncccc1-n1nc(C)c2c1C(=O)N(c1cc(C)c(=O)n(C)c1)[C@H]2c1ccc(Cl)cc1 [Example 127, (S)-4-(4-chlorophenyl)-5-(1,5-dimethyl-6-oxo-1,6-dihydropyridin-3-yl)-1-(2-methoxypyridin-3-yl)-3-methyl-4,5-dihydropyrrolo[3,4-c]pyrazol-6(1H)-one] | > 10 | 5700 | > 10 |
| CCc1nn(CCOC)c2c1C(c1ccc(Cl)cc1)N(c1cc(C)c3nnc(C)n3c1)C2=O (stereo not drawn) [Example 87, 4-(4-chlorophenyl)-5-(3,8-dimethyl-[1,2,4]triazolo[4,3-a]pyridin-6-yl)-3-ethyl-1-(2-methoxyethyl)-4,5-dihydropyrrolo[3,4-c]pyrazol-6(1H)-one] | > 10 | 50 | 0.0598 |
| Cc1nn(C2CC2)c2c1C(c1ccc(Cl)cc1)N(c1cc(C)c3nnn(C)c3n1)C2=O (stereo not drawn) [Example 110, 4-(4-chlorophenyl)-1-cyclopropyl-5-(3,7-dimethyl-3H-[1,2,3]triazolo[4,5-b]pyridin-5-yl)-3-methyl-4,5-dihydropyrrolo[3,4-c]pyrazol-6(1H)-one] | > 10 | 12 | 0.0198 |
| Cc1nn(C(=O)N(C)C)c2c1C(c1ccc(Cl)cc1)N(c1cc(C)c(=O)n(C)c1)C2=O (stereo not drawn) [Example 142, 4-(4-chlorophenyl)-5-(1,5-dimethyl-6-oxo-1,6-dihydropyridin-3-yl)-N,N,3-trimethyl-6-oxo-5,6-dihydropyrrolo[3,4-c]pyrazole-1(4H)-carboxamide] | > 10 | 190 | 0.448 |
| COc1ncc(-n2nc3c(c2C(C)C)C(c2ccc(Cl)cc2)N(c2ccc4onc(C)c4c2)C3=O)c(OC)n1 (stereo not drawn) [Example 54, 4-(4-chlorophenyl)-2-(2,4-dimethoxypyrimidin-5-yl)-3-isopropyl-5-(3-methylbenzo-[d]isoxazol-5-yl)-4,5-dihydropyrrolo[3,4-c]pyrazol-6(2H)-one] | > 10 | 260 | 1.43 |
| CNC(=O)n1nc(C)c2c1C(=O)N(c1cc(C)c(=O)n(C)c1)C2c1ccc(Cl)cc1 (stereo not drawn) [Example 143, 4-(4-chlorophenyl)-5-(1,5-dimethyl-6-oxo-1,6-dihydropyridin-3-yl)-N,3-dimethyl-6-oxo-5,6-dihydropyrrolo[3,4-c]pyrazole-1(4H)-carboxamide] | > 10 | 300 | 0.621 |
| Cc1cc(N2C(=O)c3nn(C)c(O)c3C2c2ccc(Cl)cc2)cn(C)c1=O (stereo not drawn) [Example 73, 4-(4-chlorophenyl)-5-(1,5-dimethyl-6-oxo-1,6-dihydropyridin-3-yl)-3-hydroxy-2-methyl-4,5-dihydropyrrolo[3,4-c]pyrazol-6(2H)-one] | > 10 | 210 | > 10 |
| CCn1nc(C)c2c1C(=O)N(c1cc(C)c3nnc(C)n3c1)C2c1ccc(Cl)cc1 (stereo not drawn) [Example 116, 4-(4-chlorophenyl)-5-(3,8-dimethyl-[1,2,4]triazolo[4,3-a]pyridin-6-yl)-1-ethyl-3-methyl-4,5-dihydropyrrolo[3,4-c]pyrazol-6(1H)-one] | > 10 | 32 | 0.0354 |
| Cc1nn(-c2ccnn2C)c2c1[C@@H](c1ccc(Cl)cc1)N(c1cc(C)c3nnc(C)n3c1)C2=O [Example 125, (R)-4-(4-chlorophenyl)-5-(3,8-dimethyl-[1,2,4]triazolo[4,3-a]pyridin-6-yl)-3-methyl-1-(1-methyl-1H-pyrazol-5-yl)-4,5-dihydropyrrolo[3,4-c]pyrazol-6(1H)-one] | > 10 | 25 | 0.0473 |
| CCc1nn(C2CC2)c2c1C(c1ccc(Cl)cc1)N(c1cc(OC)c3nnc(C)n3c1)C2=O (stereo not drawn) [Example 84, 4-(4-chlorophenyl)-1-cyclopropyl-3-ethyl-5-(8-methoxy-3-methyl-[1,2,4]triazolo[4,3-a]pyridin-6-yl)-4,5-dihydropyrrolo[3,4-c]pyrazol-6(1H)-one] | > 10 | 28 | 0.163 |
| Cc1cc(N2C(=O)c3nn(C4CN(C)C4)c(C)c3C2c2ccc(Cl)cc2)cn2c(C)nnc12 (stereo not drawn) [Example 158, 4-(4-chlorophenyl)-5-(3,8-dimethyl-[1,2,4]triazolo[4,3-a]pyridin-6-yl)-3-methyl-2-(1-methylazetidin-3-yl)-4,5-dihydropyrrolo[3,4-c]pyrazol-6(2H)-one] | > 10 | 82 | 0.298 |
| CCc1nn(C)c2c1C(c1ccc(Cl)cc1)N(c1cc(OC)c3nnc(C)n3c1)C2=O (stereo not drawn) [Example 105, 4-(4-chlorophenol)-3-ethyl-5-(8-methoxy-3-methyl-[1,2,4]triazolo[4,3-a]pyridin-6-yl)-1-methyl-4,5-dihydropyrrolo[3,4-c]pyrazol-6(1H)-one] | > 10 | 68 | 0.335 |
| CCc1nn(-c2ccnn2C)c2c1C(c1ccc(Cl)cc1)N(c1cc(C)c(=O)n(C)c1)C2=O (stereo not drawn) [Example 89, 4-(4-chlorophenyl)-5-(1,5-dimethyl-6-oxo-1,6-dihydropyridin-3-yl)-3-ethyl-1-(1-methyl-1H-pyrazol-5-yl)-4,5-dihydropyrrolo[3,4-c]pyrazol-6(1H)-one] | > 10 | 47 | 0.119 |
| COc1ncc(-n2nc(C)c3c2C(=O)N(c2cc(C)c(=O)n(C)c2)[C@H]3c2ccc(Cl)cc2)c(OC)n1 [Example 99, (S)-4-(4-chlorophenyl)-1-(2,4-dimethoxypyrimidin-5-yl)-5-(1,5-dimethyl-6-oxo-1,6-dihydropyridin-3-yl)-3-methyl-4,5-dihydropyrrolo[3,4-c]pyrazol-6(1H)-one] | > 10 | 7800 | > 10 |
